Key:
DU145 = assay: In vitro cytotoxicity, CCK-8 assay; type: cell-based; details: Homo sapiens, DU-145; DU145 cells, CCK-8, mean ± SD of three trials
Protocol: (§1) PC-3 and WPMY-1 cells were cultured in Dulbecco’s modiffcation Eagle’s medium (DMEM, Invitrogen, Carlsbad, CA, United States) supplemented with 10% fetal bovine serum (FBS, Hyclone, Logan, UT, United States), 100 U/mL penicillin and 0.1 mg/mL streptomycin (Invitrogen). DU145 cells were cultured in RPMI1640 media supplemented with 10% fetal bovine serum (FBS, Hyclone), 100 U/mL penicillin and 0.1 mg/mL streptomycin (Invitrogen). LNCaP cells were cultured in F12 media supplemented with 10% fetal bovine serum (FBS, Hyclone), 100 U/mL penicillin and 0.1 mg/mL streptomycin (Invitrogen). The cells were incubated at 37°C in a humidified atmosphere with 5% CO2([Chen et al., 2025]; [Jiang et al., 2024]). […]
(§2) The compound concentrations were set at 30, 15, 7.5, 3.75, 1.88, and 0.94 μmol/L. The absorbance (A) was measured at 450 nm using a microplate reader. […] All experiments were repeated three times under identical conditions, and the mean value was taken as the final result.
(§3) The cytotoxic activity of derivatives 5–24 against three human prostate cancer cell lines (PC-3, LNCaP, and DU145) and one type of human normal prostate epithelial cells was evaluated using the CCK-8 method.

WPMY-1 = assay: In vitro cytotoxicity, CCK-8 assay (normal prostatic epithelial cells); type: cell-based; details: Homo sapiens; WPMY-1 normal prostatic epithelial cells, CCK-8, mean ± SD of three trials
Protocol: as §1, §2, §3

AR = molecular target: T1, AR (Homo sapiens, UniProt P10275); assay: AR reporter gene (luciferase) assay, co-treatment with 1 nM R1881; type: cell-based; details: 10 μM compound, inhibition rate as ratio to R1881 control, read-out: AR antagonistic activity% (10 μM)
T1 sequence (P10275 1-920): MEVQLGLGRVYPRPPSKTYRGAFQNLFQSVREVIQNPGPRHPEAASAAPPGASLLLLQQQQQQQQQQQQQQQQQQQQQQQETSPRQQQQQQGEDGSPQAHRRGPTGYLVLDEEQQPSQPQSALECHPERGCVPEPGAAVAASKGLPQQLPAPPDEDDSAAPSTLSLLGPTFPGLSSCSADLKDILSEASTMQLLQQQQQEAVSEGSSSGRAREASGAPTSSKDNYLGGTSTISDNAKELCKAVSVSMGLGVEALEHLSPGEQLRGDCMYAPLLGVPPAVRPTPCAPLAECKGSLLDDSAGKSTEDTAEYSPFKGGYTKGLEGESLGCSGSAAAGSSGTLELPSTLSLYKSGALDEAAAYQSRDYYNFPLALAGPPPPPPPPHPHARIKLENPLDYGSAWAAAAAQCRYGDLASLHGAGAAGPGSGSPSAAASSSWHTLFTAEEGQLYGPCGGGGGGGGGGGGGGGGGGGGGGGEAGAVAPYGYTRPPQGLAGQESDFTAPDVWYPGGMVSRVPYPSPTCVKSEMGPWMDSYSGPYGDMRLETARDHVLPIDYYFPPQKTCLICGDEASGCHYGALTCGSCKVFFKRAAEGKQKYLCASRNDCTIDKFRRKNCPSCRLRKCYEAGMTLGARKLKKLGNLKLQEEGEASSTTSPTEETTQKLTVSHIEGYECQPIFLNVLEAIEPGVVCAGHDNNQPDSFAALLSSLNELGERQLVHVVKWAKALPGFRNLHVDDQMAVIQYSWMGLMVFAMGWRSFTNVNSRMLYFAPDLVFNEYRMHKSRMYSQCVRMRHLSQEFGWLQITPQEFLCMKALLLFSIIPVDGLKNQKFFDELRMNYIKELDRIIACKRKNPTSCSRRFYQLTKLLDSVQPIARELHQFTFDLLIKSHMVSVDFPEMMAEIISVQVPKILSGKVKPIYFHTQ
Protocol: RLUs were measured using a luminometer (GloMaxTM 96-Microplate Luminometer, Promega) and are reported as the mean ± SEM of three individual experiments. For agonists, fold of induction = LUinduced/RLUuninduced. For antagonists, % of control = 100 × RLU (agonist + antagonist)/RLU (agonist alone). All RLUs were normalized against ffreffy RLUs/Renilla RLUs. Data are expressed as EC50/IC50 values in μM, and the IC50 of […] (μM) was calculated by plotting the data using nonlinear regression analysis in Graph-Pad Prism 5 software.

AR-LBD (GST) = molecular target: T2, AR-LBD (GST) (Rattus norvegicus, UniProt P15207); assay: Fluorescence polarization, PolarScreen AR Competitor Assay, Green
T2 sequence (P15207 651-882 limits assumed): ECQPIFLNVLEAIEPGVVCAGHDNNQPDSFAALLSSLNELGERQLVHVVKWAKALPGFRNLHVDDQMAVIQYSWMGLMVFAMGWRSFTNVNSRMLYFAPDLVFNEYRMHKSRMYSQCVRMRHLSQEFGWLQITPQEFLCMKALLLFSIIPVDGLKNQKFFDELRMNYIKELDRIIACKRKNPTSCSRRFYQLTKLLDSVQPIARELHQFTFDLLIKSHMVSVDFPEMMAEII
Protocol: Brieffy, the assay entails titration of the test compound against a preformed complex of Fluormone™AL Green and the AR-LBD (GST). […] Data analysis for the ligand binding assays was performed using Prism software (GraphPad Software, Inc.).

PC-3 = assay: In vitro cytotoxicity, CCK-8 assay; type: cell-based, human; details: CCK-8, mean ± SD of three trials
Protocol: as §1, §2, §3

LNCaP = assay: In vitro cytotoxicity, CCK-8 assay; type: cell-based, human; details: LNCaP cells, CCK-8, mean ± SD of three trials
Protocol: PC-3 and WPMY-1 cells were cultured in Dulbecco’s modiffcation Eagle’s medium (DMEM, Invitrogen, Carlsbad, CA, United States) supplemented with 10% fetal bovine serum (FBS, Hyclone, Logan, UT, United States), 100 U/mL penicillin and 0.1 mg/mL streptomycin (Invitrogen). DU145 cells were cultured in RPMI1640 media supplemented with 10% fetal bovine serum (FBS, Hyclone), 100 U/mL penicillin and 0.1 mg/mL streptomycin (Invitrogen). LNCaP cells were cultured in F12 media supplemented with 10% fetal bovine serum (FBS, Hyclone), 100 U/mL penicillin and 0.1 mg/mL streptomycin (Invitrogen). The cells were incubated at 37°C in a humidified atmosphere with 5% CO2([Chen et al., 2025]; [Jiang et al., 2024]).
The proliferative capacity of cells was evaluated through the implementation of a Cell Counting Kit-8 (CCK-8) assay, supplied by Dojindo (Japan), to quantify cellular growth. Post-transfection, cells were dispensed into a 96-well microplate at a density of 3 × 10^3 cells per well and incubated for intervals of 0, 24, 48, 72, 96, and 120 h. Following this, 10 μL of the CCK-8 solution was introduced into each well and the plates were returned to the incubator for an additional 2-h period at 37°C under 5% CO2 conditions. Absorbance readings at 450 nm were subsequently taken using an ELISA reader manufactured by Bio Tek (United States) ([Chen et al., 2022]; [Zhou et al., 2024]).
as §2, §3

SMILES	IC50 (DU145)	IC50 (WPMY-1)	activity at 10 µM (AR)	IC50 (AR-LBD (GST))	IC50 (PC-3; Homo sapiens, PC-3, PC-3 cells)	IC50 (LNCaP; Homo sapiens, LNCaP)	IC50 (LNCaP)	IC50 (PC-3; PC-3 cells)
c1ccc(C(c2ccccc2)N2CCN(Cc3ccc(CCOc4cccc5c4CCCC5)cc3)CC2)cc1 [Compound 17, 1-benzhydryl-4-(4-(2-((5,6,7,8-tetrahydronaphthalen-1-yl)oxy)ethyl)benzyl)piperazine]	7.32 ± 0.08 µM	> 50 µM	> 60%	1.14 ± 0.12 µM	–	–	–	–
Cc1cccc(OCCc2ccc(CN3CCN(C(c4ccccc4)c4ccccc4)CC3)cc2)c1 [Compound 12, 1-benzhydryl-4-(4-(2-(m-tolyloxy)ethyl)benzyl)piperazine]	34.43 ± 0.15 µM	28.54 ± 0.16 µM	–	–	> 50 µM	19.6 ± 0.23 µM	–	–
COc1ccccc1N1CCN(CC(O)COc2cccc3ccccc23)CC1 (stereo not drawn) [Naftopidil, reference compound]	34.58 ± 0.31 µM	> 50 µM	–	–	42.1 ± 0.79 µM	22.4 ± 0.61 µM	–	–
Clc1ccc(OCCc2ccc(CN3CCN(C(c4ccccc4)c4ccccc4)CC3)cc2)cc1Cl [Compound 10, 1-benzhydryl-4-(4-(2-(3,4-dichlorophenoxy)ethyl)benzyl)piperazine]	> 50 µM	> 50 µM	–	–	17.44 ± 0.07 µM	> 50 µM	–	–
c1ccc(C(c2ccccc2)N2CCN(Cc3ccc(CCOc4ccc5c(c4)CCCC5)cc3)CC2)cc1 [Compound 18, 1-benzhydryl-4-(4-(2-((5,6,7,8-tetrahydronaphthalen-2-yl)oxy)ethyl)benzyl)piperazine]	14.4 ± 0.15 µM	> 50 µM	–	–	5.02 ± 0.12 µM	> 50 µM	–	–
Brc1ccccc1OCCc1ccc(CN2CCN(C(c3ccccc3)c3ccccc3)CC2)cc1 [Compound 14, 1-benzhydryl-4-(4-(2-(2-bromophenoxy)ethyl)benzyl)piperazine]	> 50 µM	> 50 µM	–	–	19.12 ± 0.16 µM	> 50 µM	–	–
Brc1ccc(OCCc2ccc(CN3CCN(C(c4ccccc4)c4ccccc4)CC3)cc2)cc1 [Compound 23, 1-benzhydryl-4-(4-(2-(4-bromophenoxy)ethyl)benzyl)piperazine]	1.42 ± 0.11 µM	> 50 µM	> 60%	1.72 ± 0.12 µM	–	< 5 µM	3.86 ± 0.13 µM	–
Clc1ccccc1OCCc1ccc(CN2CCN(C(c3ccccc3)c3ccccc3)CC2)cc1 [Compound 13, 1-benzhydryl-4-(4-(2-(2-chlorophenoxy)ethyl)benzyl)piperazine]	21.24 ± 0.16 µM	17.83 ± 0.17 µM	–	–	15.35 ± 0.08 µM	12.2 ± 0.25 µM	–	–
c1ccc(OCCc2ccc(CN3CCN(C(c4ccccc4)c4ccccc4)CC3)cc2)cc1 [Compound 5, 1-benzhydryl-4-(4-(2-phenoxyethyl)benzyl)piperazine]	> 50 µM	> 50 µM	–	–	13.08 ± 0.12 µM	> 50 µM	–	–
Ic1ccc(OCCc2ccc(CN3CCN(C(c4ccccc4)c4ccccc4)CC3)cc2)cc1 [Compound 9, 1-benzhydryl-4-(4-(2-(4-iodophenoxy)ethyl)benzyl)piperazine]	> 50 µM	> 50 µM	–	–	15.2 ± 0.19 µM	> 50 µM	–	–
N#Cc1ccc(OCCc2ccc(CN3CCN(C(c4ccccc4)c4ccccc4)CC3)cc2)cc1 [Compound 8, 4-(4-((4-benzhydrylpiperazin-1-yl)methyl)phenethoxy)benzonitrile]	19.83 ± 0.14 µM	17.56 ± 0.12 µM	–	–	12.54 ± 0.11 µM	22.36 ± 0.2 µM	–	–
Fc1ccc(OCCc2ccc(CN3CCN(C(c4ccccc4)c4ccccc4)CC3)cc2)cc1 [Compound 6, 1-benzhydryl-4-(4-(2-(4-fluorophenoxy)ethyl)benzyl)piperazine]	> 50 µM	> 50 µM	–	–	34.39 ± 0.17 µM	> 50 µM	–	–
Cc1ccccc1OCCc1ccc(CN2CCN(C(c3ccccc3)c3ccccc3)CC2)cc1 [Compound 19, 1-benzhydryl-4-(4-(2-(o-tolyloxy)ethyl)benzyl)piperazine]	0.87 ± 0.04 µM	> 50 µM	> 60%	1.01 ± 0.03 µM	–	–	–	–
Cc1ccc(OCCc2ccc(CN3CCN(C(c4ccccc4)c4ccccc4)CC3)cc2)cc1 [Compound 15, 1-benzhydryl-4-(4-(2-(p-tolyloxy)ethyl)benzyl)piperazine]	13.7 ± 0.14 µM	14.72 ± 0.14 µM	–	–	20.49 ± 0.12 µM	9.29 ± 0.23 µM	–	–
Clc1ccc(OCCc2ccc(CN3CCN(C(c4ccccc4)c4ccccc4)CC3)cc2)cc1 [Compound 21, 1-benzhydryl-4-(4-(2-(4-chlorophenoxy)ethyl)benzyl)piperazine]	13.7 ± 0.14 µM	28.65 ± 0.13 µM	49.4 ± 0.8%	2.74 ± 0.16 µM	< 5 µM	16.09 ± 0.12 µM	–	2.83 ± 0.21 µM
Cc1ccc(OCCc2ccc(CN3CCN(C(c4ccccc4)c4ccccc4)CC3)cc2)cc1C [Compound 20, 1-benzhydryl-4-(4-(2-(3,4-dimethylphenoxy)ethyl)benzyl)piperazine]	3.89 ± 0.14 µM	> 50 µM	> 60%	1.66 ± 0.12 µM	–	–	–	–
CCOc1ccc(OCCc2ccc(CN3CCN(C(c4ccccc4)c4ccccc4)CC3)cc2)cc1 [Compound 16, 1-benzhydryl-4-(4-(2-(4-ethoxyphenoxy)ethyl)benzyl)piperazine]	> 50 µM	> 50 µM	–	–	13.6 ± 0.09 µM	> 50 µM	–	–
Clc1cc(Cl)cc(OCCc2ccc(CN3CCN(C(c4ccccc4)c4ccccc4)CC3)cc2)c1 [Compound 11, 1-benzhydryl-4-(4-(2-(3,5-dichlorophenoxy)ethyl)benzyl)piperazine]	17.43 ± 0.04 µM	> 50 µM	51.2 ± 1.3%	2.01 ± 0.15 µM	–	> 50 µM	–	–

— PMC11985751, “Synthesis, bioactivity, and molecular docking studies: novel arylpiperazine derivatives as potential new-resistant AR antagonists” (Frontiers in Chemistry, 2025)
